Test results published in patent US11213527B2, “Inhibitory effect of low molecular weight compound on cancer and fibrosis” (NATIONAL UNIVERSITY CORPORATION TOTTORI UNIVERSITY, priority 2014, dated 2022).

How the values were obtained:
[1] = system: fibrosis markers TGFβ, α-SMA, and COL1A1; assay: Real-time PCR of fibrosis markers in LX-2 cells; format: cell-based, human; settings: compound+TGFβ, with increasing concentration
Method: A human liver stellate cell line (LX-2 cells) was maintained and cultured in a DMEM containing 10% FBS. The cells used for experiments were suspended in a DMEM containing 1% FBS and plated. The cell density was at about 2.0×10^5 cell/cm^2.
A real-time PCR was carried out to examine an inhibitory effect of each low-molecular-weight compound on fibrosis. The real-time PCR was conducted under conditions indicated in FIG. 55 and the following sections 9.4.1 to 9.4.2. Note that TGFβ, α-SMA, and COL1A1 are fibrosis markers.
A pre-Mix was prepared by using MilliQ water: 5.2 μL/sample, MgCl2: 0.8 μl/sample, 10 μM primer F: 0.5 μl, 10 μM primer R: 0.5 μl, and LightCycler FastStart DNA Master SYBER Green I (1a+1b): […]/sample. Next, 8 μL of the pre-Mix was pipetted into each well. Then, 2 μL of the sample was added thereto.

unsorted HuH7 cells = assay: Mice transplanted with unsorted HuH7 cells; format: in vivo; settings: unsorted HuH7 cells instead of CD44-positive HuH7 cells
Excerpt: The effect of treating malignant tumors may be evaluated by imaging, endoscopic examination, biopsy, or detection of a malignant tumor marker. In addition, the effect of treating cancer stem cells may be evaluated by imaging, endoscopic examination, biopsy, or detection of a cancer stem cell marker. In addition, the effect of treating fibrosis may be evaluated by imaging, endoscopic examination, biopsy, or detection of a fibrosis marker. […] At this time, the level of a marker after administration of a therapeutic drug may be 0.7, 0.5, 0.3, or 0.1 times the level before the administration (or of a control). […] At this time, the number of marker-positive cells after administration of the therapeutic drug may be 0.7, 0.5, 0.3, or 0.1 times the number before the administration (or of a control). Note that in Example 2 below, the therapeutic effect was evaluated by using mice in which CD44-positive HuH7 cells had been subcutaneously transplanted. The present inventors also replaced the above CD44-positive HuH7 cells by unsorted HuH7 cells.

[2] = system: HuH7 cells (a liver cancer cell line); assay: Inhibitory effect on cancer cells (WST assay); format: cell-based; settings: 0-50 μM; 4 days (concentration-dependent) or 0, 1, 2, 4 days (time-dependent); DMSO control
Method: HuH7 cells (a liver cancer cell line) were cultured in a DMEM on a 10-cm cell culture dish (TPP Techno Plastic Products AG, Trasadingen, Switzerland) at 5% CO2, 37° C., and a humidity of 100%. After the cells were grown to 70 to 90% confluency, 200 μL of a Trypsin/EDTA solution was added thereto to detach the cells. The cells were centrifuged at 1000 rpm for 5 min at room temperature for recovery. Then, the cells in one dish were divided into four dishes and subcultured.
When a concentration-dependent anti-tumor effect was examined, HuH7 cells at 70 to 90% confluency were collected, and 1×10^4 cells were seeded in each well of a 96-well plate (FALCON). When a time-dependent anti-tumor effect was examined, 5×10^3 cells were seeded. Twenty-four hours after the seeding, the cells were treated with IC-2, PN3-13, or HC-1, and further incubated at 37° C. DMSO was used as a control.
The concentration of each low-molecular-weight compound was provided below. […] After that, absorbance (at a measurement wavelength of 450 nm/a control wavelength of 600 nm) was measured by a 96-well microplate reader (TECAN, Zurich, Switzerland). The absorbance of cells was calculated by subtracting the absorbance of reagent blank from the measured result, and was then converted to the viable cell count. Also, the IC50 of each low-molecular-weight compound was determined by using an equation: […]

[3] = system: squamous cell carcinoma cells (HSC2; HSC3 for IC-2); assay: Anti-tumor effect on squamous cell carcinoma cells (TetraColor ONE); format: cell-based; settings: HSC2 (HSC3 also for IC-2); 48 hours
Method: HSC2 cells (a squamous cell carcinoma cell line) were cultured in a DMEM on a 10-cm cell culture dish (TPP Techno Plastic Products AG, Trasadingen, Switzerland) at 5% CO2, 37° C., and a humidity of 100%. The cells at 70-90% confluency were to be split and washed with PBS (−). Next, 300 μL of Trypsin/EDTA was added to 2 mL of PBS (−) and the cells were incubated with this solution at 37° C. for 5 min to detach the cells. Then, 5 mL of DMEM was used to recover the cells. The recovered cells were centrifuged at 1000 rpm for 3 min to remove a supernatant. The pelleted cells were suspended in DMEM and subcultured at 1:4.
First, 2.5×10^3 of HSC2 cells were seeded on each well of a 96-well plate (TPP). After 48 hours from the low-molecular-weight compound treatment, 100 μL of 10% TetraColor ONE (SEIKAGAKU CORPORATION, Tokyo, Japan) was added and the mixture was then incubated at 37° C. After that, absorbance (at a measurement wavelength of 450 nm/a control wavelength of 600 nm) was measured by a 96-well microplate reader (TECAN, Zurich, Switzerland). The same procedure was used to investigate an anti-tumor effect of IC-2 on a squamous cell carcinoma cell line HSC3 after culturing.

O=C1[C@H](Cc2ccccc2)N2C(=O)CCN(C(=O)NCc3ccccc3)[C@H]2CN1Cc1cccc2ccccc12 [IC-2]
level of expression of COL1A1 ([1]; 24 or 48 hours): decreased | level of expression of α-SMA ([1]; 24 or 48 hours): remarkably reduced | level of expression of TGFβ ([1]; 24 hours): decreased | level of expression of TGFβ ([1]; 48 hours): decreased | effect of treating a malignant tumor (unsorted HuH7 cells): exhibits an effect of treating a malignant tumor | proliferation of HuH7 cells (cell viability) [2]: significantly inhibited proliferation | inhibitory effects on proliferation of the squamous cell carcinoma cells [3]: exerted inhibitory effects on proliferation
